From EP4786487A1, “PEPTIDE” (Peptidream Inc, priority 2023, dated 2025)
Like-named read-outs stand apart in the source and are kept apart here. Starred links: 1 amine or outer side, 2 acyl side, 3 side chain; linkers in the order of their positions; H or OH if unused. Positions of bridges follow the written chain, without caps; N, C: chain ends. Non-standard residues stand in square brackets, D forms with d. Residues, ends and D or L forms follow the SMILES beside them. *: point of attachment. Phe(4-(2-MeO-Ph)) = COc1ccccc1-c1ccc(C[C@H](N)C(=O)O)cc1; Phe(3-OCH2COOH) = N[C@@H](Cc1cccc(OCC(=O)O)c1)C(=O)O; X2 = CC(=O)N1CCC(C[C@@H](C(=O)[*:2])N(C)[*:1])CC1; Trp(6-OH) = N[C@@H](Cc1c[nH]c2cc(O)ccc12)C(=O)O; Phe(4-CONH2) = NC(=O)c1ccc(C[C@H](N)C(=O)O)cc1; Phe(4-COOH) = N[C@@H](Cc1ccc(C(=O)O)cc1)C(=O)O; Piperazinyl(4-CH2COOH) = O=C(O)CN1CCN(*)CC1; Bip = N[C@@H](Cc1ccc(-c2ccccc2)cc1)C(=O)O; Gly(N(CH2)3COOH) = O=C(O)CCCNCC(=O)O; X1 = CCCCCCC[C@H](N[*:1])C(=O)[*:2]; NMeF = CN[C@@H](Cc1ccccc1)C(=O)O; NMeE = CN[C@@H](CCC(=O)O)C(=O)O; Ahp(2) = CCCCC[C@H](N)C(=O)O; NMeA = CN[C@@H](C)C(=O)O; Sar = CNCC(=O)O

Tests used:
Myostatin = molecular target: T1, Myostatin (Homo sapiens, UniProt O14793); experiment: HepG2 reporter gene assay, Evaluation Procedure (2): 2-concentrations assay, myostatin inhibition; format: cell-based
T1 construct: active myostatin (also called mature myostatin) is a homodimer consisting of two C-terminal growth factor domains; purchased R&D systems 788-G8/CF
T1 sequence (O14793 267-375): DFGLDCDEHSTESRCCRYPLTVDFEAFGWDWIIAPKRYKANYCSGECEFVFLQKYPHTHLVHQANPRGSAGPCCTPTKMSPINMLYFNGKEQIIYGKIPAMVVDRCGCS
Method in brief: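 Myostatin inhibition was measured in a luciferase reporter assay using HepG2 cells transfected with a pGL3 vector containing 12 CAGA repeats upstream of luciferase. After 20 to 24 hours with 10 ng/mL myostatin, cells received One-Glo:PBS (1:1) at 100 µL/well, were shaken for 5 min, and 20 µL/well was moved to 384-well plates and read on an Envision 2104.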

GDF-11 = molecular target: T2, GDF-11 (Homo sapiens, UniProt O95390); experiment: HepG2 reporter gene assay, Evaluation Procedure (2): 2-concentrations assay, GDF-11 inhibition; format: cell-based; settings: for inhibition at 0.03 µM: HepG2, peptide 30nM, read-out: GDF11 Inhibition 30nM; for inhibition at 0.03 µM / inhibition at 0.1 µM: GDF-11 10 ng/mL; for inhibition at 0.1 µM: HepG2, peptide 100nM, read-out: GDF11 Inhibition 100nM
T2 construct: purchased R&D systems 1958-GD-G8/CF
T2 sequence (O95390 299-407): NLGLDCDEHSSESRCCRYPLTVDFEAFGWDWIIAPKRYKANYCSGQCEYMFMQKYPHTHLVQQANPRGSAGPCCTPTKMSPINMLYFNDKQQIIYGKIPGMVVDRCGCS
Method in brief: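 HepG2 cells carrying the transfected pGL3(CAGA)12-luc reporter, a pGL3 vector with luciferase placed downstream of 12 CAGA repeats, were stimulated with GDF-11 at a final 10 ng/mL together with test peptide. Blank wells received no GDF-11 and no peptide. Plates were incubated 20 to 24 hours at 37°C with 5% CO2. Luminescence from One-Glo substrate was read to calculate percent inhibition.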

[1] = peptide 30nM, Myostatin 10 ng/mL, HepG2, read-out: Myostatin Inhibition 30nM
[2] = peptide 100nM, Myostatin 10 ng/mL, HepG2, read-out: Myostatin Inhibition 100nM
[3] = HepG2, read-out: inhibition rate (myostatin inhibition assay)

CCCCC[C@@H]1NC(=O)[C@H](Cc2ccccc2)N(C)C(=O)[C@H](CCCNC(=N)N)NC(=O)[C@H](Cc2ccc(C(=O)O)cc2)NC(=O)[C@H](Cc2cccc(OCC(=O)O)c2)NC(=O)CN(C)C(=O)[C@H]([C@@H](C)CC)NC(=O)[C@H](Cc2ccccc2)N(C)C(=O)[C@H](Cc2ccc(O)cc2)NC(=O)[C@H](Cc2c[nH]c3ccccc23)NC(=O)[C@H](C)NC(=O)[C@H](C)N(C)C(=O)CSC[C@H](C(=O)O)NC(=O)[C@H](Cc2ccccc2)N(C)C(=O)[C@H](C)N(C)C1=O [Myostatin_99_v240] ({CH2CO}-[NMeA]AWY[NMeF]I[Sar][Phe(3-OCH2COOH)][Phe(4-COOH)]R[NMeF][Ahp(2)][NMeA][NMeF][dC]-OH; thioether N-15)
inhibition at 0.03 µM (Myostatin; [1]): 69%
inhibition at 0.1 µM (Myostatin; [2]): 91%
inhibition at 0.03 µM (GDF-11): 0%
inhibition at 0.1 µM (GDF-11): 0%

CC[C@H](C)[C@@H]1NC(=O)[C@H](Cc2ccccc2)N(C)C(=O)[C@H](Cc2ccc(O)cc2)NC(=O)[C@H](Cc2ccc(-c3ccccc3)cc2)NC(=O)[C@H](C)NC(=O)CN(CCCC(=O)O)C(=O)CSC[C@H](C(=O)O)NC(=O)[C@H](Cc2ccccc2)N(C)C(=O)[C@H](C)N(C)C(=O)[C@H](CC(C)C)NC(=O)[C@H](Cc2ccccc2)N(C)C(=O)[C@H](CCCNC(=N)N)NC(=O)[C@H](Cc2ccc(C(N)=O)cc2)NC(=O)[C@H](Cc2ccc(C(=O)O)cc2)NC(=O)[C@H](C)N(C)C1=O [Myostatin_99_v102] ({CH2CO}-[Gly(N(CH2)3COOH)]A[Bip]Y[NMeF]I[NMeA][Phe(4-COOH)][Phe(4-CONH2)]R[NMeF]L[NMeA][NMeF][dC]-OH; thioether N-15)
inhibition at 0.03 µM (Myostatin; [1]): 60%
inhibition at 0.1 µM (Myostatin; [2]): 81%
inhibition at 0.03 µM (GDF-11): 0%
inhibition at 0.1 µM (GDF-11): 0%

CCCCCCC[C@@H]1NC(=O)[C@H](Cc2ccccc2)N(C)C(=O)[C@H](CCCNC(=N)N)NC(=O)[C@H](Cc2ccc(C(=O)O)cc2)NC(=O)[C@H](Cc2cccc(OCC(=O)O)c2)NC(=O)CN(C)C(=O)[C@H]([C@@H](C)CC)NC(=O)[C@H](CC2CCN(C(C)=O)CC2)N(C)C(=O)[C@H](Cc2ccc(O)cc2)NC(=O)[C@H](Cc2c[nH]c3ccccc23)NC(=O)[C@H](C)NC(=O)[C@H](C)NC(=O)CSC[C@H](C(=O)N2CCN(CC(=O)O)CC2)NC(=O)[C@H](Cc2ccccc2)N(C)C(=O)[C@H](C)N(C)C1=O [Myostatin_99_v303] ({CH2CO}-AAWY[X2]I[Sar][Phe(3-OCH2COOH)][Phe(4-COOH)]R[NMeF][X1][NMeA][NMeF][dC]-{Piperazinyl(4-CH2COOH)}; thioether N-15)
inhibition at 0.03 µM (Myostatin; [1]): 100%
inhibition at 0.1 µM (Myostatin; [2]): 100%
inhibition at 0.03 µM (GDF-11): 39%
inhibition at 0.1 µM (GDF-11): 67%

CCCCCCC[C@@H]1NC(=O)[C@H](Cc2ccccc2)N(C)C(=O)[C@H](CCCNC(=N)N)NC(=O)[C@H](Cc2ccc(C(=O)O)cc2)NC(=O)[C@H](Cc2ccc(-c3ccccc3OC)cc2)NC(=O)[C@H](C)N(C)C(=O)[C@H]([C@@H](C)CC)NC(=O)[C@H](Cc2ccccc2)N(C)C(=O)[C@H](Cc2ccc(O)cc2)NC(=O)[C@H](Cc2c[nH]c3cc(O)ccc23)NC(=O)[C@H](C)NC(=O)CN(CCCC(=O)O)C(=O)CSC[C@H](C(=O)O)NC(=O)[C@H](Cc2ccccc2)N(C)C(=O)[C@H](CCC(=O)O)N(C)C1=O [Myostatin_99_v323] ({CH2CO}-[Gly(N(CH2)3COOH)]A[Trp(6-OH)]Y[NMeF]I[NMeA][Phe(4-(2-MeO-Ph))][Phe(4-COOH)]R[NMeF][X1][NMeE][NMeF][dC]-OH; thioether N-15)
inhibition at 0.03 µM (Myostatin; [3]): 97%
inhibition at 0.1 µM (Myostatin; [3]): 99%
inhibition (GDF-11; HepG2, read-out: inhibition rate (GDF-11 inhibition assay), Table 7-3/7-4, GDF-11 10 ng/mL, peptide at the higher of the 2 concentrations): 0%
inhibition (GDF-11; HepG2, read-out: inhibition rate (GDF-11 inhibition assay), Table 7-3/7-4, GDF-11 10 ng/mL, peptide at the lower of the 2 concentrations): 0%
